Like-named read-outs stand apart in the source and are kept apart here.
Assays:
SH-SY5Y = settings: MTT reduction
Method: They were recovered by centrifugation at 800 rpm for 10 min. Cells from the third to twelfth passage were seeded at a density of 80,000 cells/well in 96-well plates for the neuroprotection studies.
Basal absorbance was set to 100% and results were normalized to basal conditions.
Cytotoxicity. LD50 values in several cell cultures employed
Table S2. Cytotoxicity elicited by 10-18 compounds in SH-SY5Y, AREc32 and mixed pr imary glial cultures. Viability was measured as MTT reduction in presence of increasing concentrations of der ivatives. LD50 values were calcula ted from dose-response curves. Data are expr essed as mean ± SEM of at least 3 independent experiments.
1.3. PAMPA control compounds (BBB permeability)
Table S3. Pr ediction of the BBB passive permeability of control compounds

[1] = tested on: nitrite production in mixed primary glial cultures; test: Nitrite production in LPS stimulated primary mixed glial cultures (Griess); assay type: cell-based; settings: Rattus norvegicus; 24 h pre-treatment, LPS 1 µg/mL 18 h; read-out: EC50 Nitrite Reduction
Method: Cells were cultured for 7–10 days before treatment.
Primary glial cells were pre-treated with compounds at the desired concentration for 24 h. Then, treatments were removed and glial cells were incubated with lipopolysaccharide (LPS, 1 μg/mL; Sigma–Aldrich, Spain) in the presence of each compound at the desired concentration for 18 h. Nitrite production was then assessed by modified Griess assay. Briefly, 150 µL of each sample was mixed with 75 µL of 4,4′-diamino-diphenylsulfone (Dapsone) and 75 µL of N-(1-naphthyl)ethylenediamine (Neda). The mixture was incubated at room temperature for 5 min. […] Data were normalized to basal conditions, setting this value as 100% of nitrite production. EC50 values were calculated from dose–response curves obtained from representing percentage of nitrites reduction vs. compound concentration.

SH-SY5Y cells = test: Neuroprotection in SH-SY5Y against rotenone/oligomycin A (MTT); assay type: cell-based, human; settings: compound 0.1 µM, 24 h pre- and 24 h co-incubation
Method: Cells were seeded at a density of 60,000 cells/well in 96-well transparent plates for 24 h. Then cells were pre-incubated with the corresponding compound at 0.1 μM. After 24 h, the medium was removed and replaced with 1% (v/v) FBS media containing the corresponding compound at 0.1 µM and the selected toxic stimuli, namely a mixture of rotenone and oligomycin A (R/O; 30/10 μM, respectively; Sigma–Aldrich, Spain) or 6-hydroxydopamine (100 µM; Sigma–Aldrich, Spain). […].

[2] = tested on: HMOX1 and GCLC in MEF cells; test: Western blot of NRF2-dependent proteins in WT and NRF2 KO MEF cells; assay type: cell-based, mouse; settings: 10 µM, 8 or 16 h
Method: Cell samples were lysed in ice-cold AKT lysis buffer (137 mM of NaCl, 20 mM of NaF, 10% glycerol, 20 mM of Tris–HCl, 1% Nonidet P-40, 1 μg/mL of leupeptin, 1 mM of phenylmethylsulfonylfluoride, 1 mM of sodium pyrophosphate, and 1 mM of Na3VO4, pH 7.5). Protein quantification was performed using the Pierce BCA Protein Assay Kit (ThermoFisher, Madrid, Spain) following manufacturer’s instructions. Then, 30 μg of protein were resolved by sodium dodecyl sulfate-polyacrylamide gel electrophoresis (SDS-PAGE) and transferred to Immobilon-P polyvinylidene difluoride (PVDF) membranes (Millipore Corp.). Membranes were activated with methanol and blocked with 4% bovine serum albumin (BSA) in Tris-buffered saline-Tween (TTBS: 10 mM of Tris, 150 mM of NaCl; 0.2% Tween-20, pH 7.4) for 2 h. After that, membranes were incubated overnight at 4 °C with the corresponding primary antibodies: anti–HMOX1 (1:1000, ab68477, Abcam, Cambridge, UK), anti-glutamate-cysteine ligase catalytic subunit (GCLC, 1:1000, ab41463, Abcam), anti-β-actin (1:50,000, A3854, Sigma–Aldrich, Madrid, Spain). […] Band intensities from specific proteins were analyzed with Fiji software.

NRF2 = NRF2 induction, luciferase activity in AREc32 reporter cells; assay type: cell-based, human; settings: for fold potentiation of NRF2 induction compared to the corresponding -OMe derivative: 11, 12 vs 10, 14, 15 vs 13; for EC50: Homo sapiens, 24 h, concentration required to double luciferase activity compared to basal, read-out: CD (µM) NRF2 Induction
Method: Cells were used from the third to twelfth passage.
AREc32 cells were stably transfected with the plasmid pGL-8xARE that implements 8 copies of the antioxidant response element (ARE) sequences followed by luciferase reporter gen. Therefore, NRF2 induction can be related to the activation of ARE sequences by measuring luciferase activity in terms of luminescence production. For NRF2 induction experiments, cells were plated in 96 white flat bottom well plates (20,000 cells/well). After 24 h, cells were incubated with selected compounds at the desired concentrations in duplicates for 24 h. The Luciferase Assay System (Promega E1500) was used according to provider protocol and luminescence was quantified in an Orion II microplate luminometer (Berthold, Germany). Fold induction of luciferase activity was normalized to basal conditions. Data were expressed as CD values, which means the concentration needed to duplicate the luciferase activity compared to basal conditions. CD values were calculated from dose–response curves fitted by non-linear regression for each compound after logarithmic transformation of the data using GraphPad Prism 8.0 software.

hrMAO-A = molecular target: T1, hrMAO-A (Homo sapiens, UniProt P21397); test: Inhibition of monoamine oxidase A (Amplex UltraRed, tyramine); assay type: biochemical
T1 construct: purchased Sigma–Aldrich
T1 sequence (P21397 1-527): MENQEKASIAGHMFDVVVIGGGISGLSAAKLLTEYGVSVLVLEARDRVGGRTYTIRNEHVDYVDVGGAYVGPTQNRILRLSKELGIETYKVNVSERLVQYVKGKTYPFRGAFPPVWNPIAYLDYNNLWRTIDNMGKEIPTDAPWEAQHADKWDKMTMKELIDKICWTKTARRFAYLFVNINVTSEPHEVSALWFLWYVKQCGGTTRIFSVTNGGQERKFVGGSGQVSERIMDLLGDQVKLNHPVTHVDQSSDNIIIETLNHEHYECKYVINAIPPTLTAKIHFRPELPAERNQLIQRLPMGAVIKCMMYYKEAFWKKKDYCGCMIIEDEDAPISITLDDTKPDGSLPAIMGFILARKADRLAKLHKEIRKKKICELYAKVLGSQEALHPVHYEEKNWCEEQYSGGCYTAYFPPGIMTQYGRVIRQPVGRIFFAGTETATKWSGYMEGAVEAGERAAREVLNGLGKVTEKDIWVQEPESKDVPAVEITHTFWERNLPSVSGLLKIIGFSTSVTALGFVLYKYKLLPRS

[3] = tested on: blood-brain barrier (passive diffusion); test: Blood–brain barrier permeation assay (PAMPA); settings: PAMPA, pH 7.4
Method: (§1) Briefly, permeability of the compounds was measured at an initial concentration of 100 µM, including positive and negative controls (Supplementary Data; Table S3). […] After 5 min, 180 µL of each compound solution in PBS (10 mM, pH 7.4) was added to determine their ability to pass the membrane (VD). The 96-well acceptor plate (Multiscreen, Millipore Corp., Madrid Spain) was loaded with 180 µL of PBS (VA). Then, the donor filter plate was carefully placed on the acceptor plate to form a sandwich-like system, which was left undisturbed for 4 h at room temperature. After incubation, the donor plate was removed and the absorbance at the maximum absorption wavelength for each compound was recorded in both the acceptor and donor wells (150 µL/well) using a UV plate reader SPECTROstar Nano (BMG Labtech, Ortenberg, Germany). Concentration of the compounds in the donor and acceptor plates and equilibrium concentration were calculated and expressed as permeability (Pe) according the Equation (1). Results are expressed as mean ± standard error of the mean (SEM) of at least three different experiments in duplicate:(1) logPe =log{C×−ln(1−[drug]acceptor/[drug]equilibrium)} where C=(VD×VA/(VD +VA)×Area×Time) .

[4] = tested on: blood-brain barrier (passive diffusion); test: in vitro; settings: PAMPA, pH 7.4
Method: as §1

[5] = 30 min pre-incubation, 37 °C, read-out: IC50 MAO-A

SMILES	LD50 (µM) SH-SY5Y (SH-SY5Y) [µM]	EC50 [1] [µM]	R/O (30/10 µM) Protection (%) (SH-SY5Y cells)	HMOX1 and GCLC protein levels in NRF2 KO MEF cells [2]	HMOX1 and GCLC protein levels in WT MEF cells [2]	fold potentiation of NRF2 induction compared to the corresponding -OMe derivative (NRF2) [fold]	luciferase activity (NRF2 induction) dose–response (NRF2; AREc32 cells, 24 h, 3, 5, and 10 µM)	EC50 (NRF2; AREc32 cells) [µM]	IC50 (hrMAO-A; [5]) [µM]	Papp at 4 h, 100 µM [3] [×10⁻⁶ cm/s]	Papp [4] [×10⁻⁶ cm/s]	IC50 (hrMAO-A) [µM]
C#CCN(CC#C)CCc1c[nH]c2ccc(OC(=O)C=Cc3ccccc3)cc12 [Compound 14, 3-(2-(Di(prop-2-yn-1-yl)amino)ethyl)-1H-indol-5-yl Cinnamate]	66.5 ± 9.8	19.4 ± 1.4	53.3	not able to increase	increased	3	significantly increasing luciferase activity	5.07 ± 0.23	56.6 ± 6.3	4.15 ± 1.8		
C#CCN(CC#C)CCc1c[nH]c2ccc(OC(=O)/C=C/c3ccc(C)cc3)cc12 [Compound 15, 3-(2-(Di(prop-2-yn-1-yl)amino)ethyl)-1H-indol-5-yl-(E)-3-(p-tolyl) Acrylate]	48.3 ± 6.6	22.9 ± 3.3	36.4			3		5.76 ± 0.07	> 100	4.46 ± 1.9		
C#CCNCCc1c[nH]c2ccc(OC)cc12 [Compound 10, N-(2-(5-Methoxy-1H-indol-3-yl)ethyl)prop-2-yn-1-amine]		16.2 ± 2.5	44.6					20.9 ± 2.2			12.3 ± 0.62	0.826 ± 0.11
C#CCN(CC#C)CCc1c[nH]c2ccc(OC)cc12 [Compound 13, N-(2-(5-Methoxy-1H-indol-3-yl)ethyl)-N-(prop-2-yn-1-yl)prop-2-yn-1-amine]		12.6 ± 0.53	42.7					13.9 ± 1.5			20.3 ± 7.5	> 100

Reference: PMC8868346, “Novel Series of Dual NRF2 Inducers and Selective MAO-B Inhibitors for the Treatment of Parkinson’s Disease” (Antioxidants, 2022)
